row,SMILES,melting point [°C]
1,ClC1(Cl)C(c2ccccc2)C1(c1ccccc1)c1ccccc1 (stereo not drawn),106 to 107
2,CCOC(=O)C1=C(C)NC(c2cscn2)=NC1c1cccc(F)c1 (stereo not drawn),118 to 120
3,O=[N+]([O-])c1ccc(Br)cc1CS(=O)(=O)c1ccccc1,143 to 144
4,COCOCc1nc(N)c2ncc(OC)nc2n1,193 to 195
5,CCCCc1nc2ccccn2c(=O)c1-c1ccc(NC2CCN(C(=O)OC(C)(C)C)C2)cc1 (stereo not drawn),116 to 118
6,CCN1C(=O)CCC2(CCC(=O)c3ccccc32)C1=O (stereo not drawn),85.5 to 89
7,CCOC(=O)[C@@H]1OC(c2ccc(O)c(OCC)c2)O[C@H]1C(=O)OCC,78 to 80
8,COc1ccc(CCN2CCN(C(=O)c3ccc(N(CCOC(C)C)C(=O)CCl)cc3)CC2)cc1,139 to 140
9,N#CCCNC(=S)C1=CC(CF)(CF)Oc2ccc(C(F)(F)C(F)(F)F)cc21,108 to 109
10,O=c1c(OCc2nnn[nH]2)coc2ccccc12,194 to 196
11,CSC(=N[N+](=O)[O-])NC(C)=O,109 to 110
12,C#CCNC(=O)N1CC(c2ccc(Cl)c(Cl)c2)C1,106 to 108
13,O=C(O)c1ccc2c(c1)C(=O)N(c1ccc(C3(c4ccc(N5C(=O)c6ccc(C(=O)O)cc6C5=O)cc4)c4ccccc4-c4ccccc43)cc1)C2=O,328 to 331
14,COc1ccc(C(=O)C2(O)CCCCC2C(=O)NCC(C)C)cc1 (stereo not drawn),143 to 147
15,Cc1cc(N)c(OCc2ccccc2)c(Cl)c1C,57 to 58
16,CCCC12CCC3C4CCCC=C4CCC3C1CCC2=O (stereo not drawn),89 to 90
17,CN(C)SN(C)C(=O)ON=C1SCC(=O)NC1(C)C,165 to 167
18,N#Cc1ccccc1C#CC1(C(F)(F)F)OC(=O)Nc2ccc(Cl)cc21 (racemic),245 to 246
19,Cc1cc(NC(=O)C(C)(O)COc2cccc(F)c2F)ccc1[N+](=O)[O-] (stereo not drawn),68 to 73
20,Cc1oc2ccccc2c1C(=O)NCc1ccc2cc(O)ccc2c1,195 to 198
21,CCOc1ccc(/C=C/c2cc(OC)cc(OC)c2)cc1,54 to 55
22,CCCc1nnc2c(NC3CCCC3)nc3ccccc3n12,186 to 188

row,SMILES,melting point [°C]
1,C=CCOC(=O)/C(=N\O)c1csc(N)n1,184 to 185
2,Cc1c(C(=O)O)c(=O)c(Br)c(-c2ccccc2)n1C,257 to 258
3,CC(Cl)c1ccc(-c2ccc(Cl)cc2)cc1 (stereo not drawn),100 to 102
4,Nc1cc(C(=O)Nc2ccccc2)ccc1OC(F)(F)F,160 to 162
5,Cc1ccc(-c2cncc(/C=C/C(=O)O)c2)cc1,208 to 211
6,NC(=O)CNC(=O)c1cccc(-c2cccc3oc(Cc4ccc(F)c(Cl)c4)cc23)c1,155 to 156
7,CCOC1=C(C(=O)N(C)C)S(=O)(=O)N=C1N,221 to 223
8,COC(C)(C)c1ccc(-c2cc(-c3c[nH]nc3-c3cccc(C)n3)ccc2F)nc1,168 to 169
9,N#Cc1cc(C#N)cc(CO)c1,119 to 120
10,Clc1nccc2cc(Br)ccc12,103 to 104
11,COC(=O)c1ccc(CBr)c(OC)c1,87 to 90
12,CCc1nc(N)nc(N)c1CCC(C)c1cccc(C(F)(F)F)c1 (stereo not drawn),93 to 96
13,COc1ccc(OCC(O)COc2cccc(O)c2C(C)=O)cc1 (stereo not drawn),100 to 102
14,N#Cc1c(Cl)[nH]c(-c2ccc(Cl)c(Cl)c2)c1Cl,> 200
15,NS(=O)(=O)c1ccccc1OC(Cl)=CCl,147 to 149
16,CCOc1cc2ncc(C#N)c(Nc3ccc4cc[nH]c4c3)c2cc1OCC,128 to 130
17,COc1ccccc1NC(=O)c1ccncc1,79 to 80
18,CC(=O)OC1C(C)OC(Oc2ncn(Cc3ccc([N+](=O)[O-])cc3)c2C(N)=O)C(OC(C)=O)C1OC(C)=O (stereo not drawn),103 to 105
19,CS(=O)(=O)Nc1cc(Cl)c(C#N)cc1Sc1ccc(F)cc1F,159 to 162
20,CCN(C(=O)C#Cc1ccccc1)c1ccccc1C1CCCCN1C (stereo not drawn),104 to 106
21,COc1cccc2c1C(=O)c1cccc3cc(O)cc-2c13,298 to 300

# The remaining lines, values ahead:
row,melting point [°C],SMILES
1,215 to 218,CC(=O)C1=C(O)C(=C(C)Nc2ccc(N)cc2)C(=O)OC1=O
2,50 to 52,CC(=O)c1ccc(CC(=O)OC(C)(C)C)cc1
3,105 to 106,C/C(=C\CC1OC(=O)NC1=O)c1cccc(OCc2nc(-c3ccc(OC(F)(F)F)cc3)oc2C)c1 (stereo not drawn)
4,174 to 175,COc1ccc(NC(=O)NC2CCN(Cc3ccccc3)CC2)c(CCc2cc(C(C)(C)C)c(O)c(C(C)(C)C)c2)c1
5,162 to 163,CC(C)(C)C(=O)OCOC(=O)[C@H]1C[C@H](NC(=O)Cc2ccccc2)c2c(Cl)cc(Cl)cc2N1 (relative stereo)
6,214 to 216,CCCc1nn(C)c2c(=O)[nH]c(-c3cc([N+](=O)[O-])ccc3OCC)nc12
7,220 to 221,N#Cc1ncn2c1COC(=O)c1ccccc1-2
8,144 to 146,COC(=O)c1ccc(Cc2cn(C)c3ccc([N+](=O)[O-])cc23)c(OC)c1
9,84 to 85,COCOc1cc2c(cc1C=O)C(C)(C)CCC2(C)C
10,253 to 256,COc1cc(-c2nc(-c3ccc(N(C)C)cc3)c(C)[nH]2)ccc1OC(C)=O
11,171 to 174,CC(O)C(C)Sc1sc(-c2cc[nH]n2)c2c1C(=O)CC(C)(C)C2 (stereo not drawn)
12,86 to 88,O=C1CCCc2nc3ccccc3c(NCCCC(c3ccccc3)c3ccccc3)c21
13,128 to 129,COc1ccc(OC(=O)[C@H](C)NC(=O)OCc2ccccc2)cc1
14,154 to 155,CC(C)(C)c1cc(I)c2c(c1)CNS(=O)(=O)O2
15,116 to 118,COC(=O)/C=C/c1cc(-c2ccc(C)cc2)cs1
16,221,Nc1nnc(-c2ccc(Cl)cc2)s1
17,233 to 235,CSc1nc(N)nc(-c2ccccc2)c1-c1ccc(=O)n(C)n1
18,94 to 96,O=Cc1ccc(OCc2coc(-c3ccccc3)n2)cc1
19,177 to 178,CC1COC(=O)N1c1cc(-c2ccnc(Nc3cccc(Cl)c3)n2)ccn1 (stereo not drawn)
20,115,c1ccc(OCCSCc2nnc(-c3ccc(OCc4ccccn4)cc3)o2)cc1

row,melting point [°C],SMILES
1,196,O=C(CC(F)(F)F)N[C@H]1CC[C@H](CCN2CCN(c3nccc4c3CCO4)CC2)CC1
2,168,CC(=CCP(=O)(O)O)C(N)C(=O)O (stereo not drawn)
3,165,COC(=O)C1=C(C)Nc2nc(N3CCOCC3)nc(N3CCOCC3)c2C1c1cccc([N+](=O)[O-])c1 (stereo not drawn)
4,162 to 165,CS(=O)(=O)OCc1cc(-c2ccc3occc3c2)nn(Cc2ccc(F)cc2)c1=O
5,213,O=C(O)Cc1cc(C(=O)c2ccc([N+](=O)[O-])cc2)ccc1O
6,90 to 92,Cc1ccc(S(=O)(=O)N[C@H](CO)CCO)cc1
7,153,Cc1nc2c(O)c(C(=O)[C@@H]3OC(C)(C)O[C@H]3c3ccccc3)ccc2n1C1CC1
8,160 to 162,CNS(=O)(=O)Cc1ccc2[nH]cc(C3CCN(C)C3)c2c1 (stereo not drawn)
9,164 to 166,Cc1ccc(COc2ccc3c(c2)c(C=CC(=O)O)cn3CC(=O)N(C)CCc2ccccc2)cc1
10,87,Cc1ccc(S(=O)(=O)N2[C@H](CCCC(=O)O)CC[C@@H]2c2ccc(F)cc2)cc1 (racemic)
11,210 to 216,Cn1ccc(=O)c(OCc2ccccc2)c1C(=O)c1cccnc1
12,140,C#Cc1cc(F)c(-n2c(=O)cc(C(F)(F)F)n(C)c2=O)cc1OCC
13,188 to 189,Cn1cnc2c3ncc(Cl)cc3ccc21
14,86 to 89,c1cc(C2OCCO2)ccc1C1OCCO1
15,118 to 120,CC(C)=CCN1CCc2c(sc(N)c2C(=O)c2ccc(Cl)cc2)C1
16,91 to 94,C/C(O)=C(\C#N)C(=O)Sc1ccc(Cl)cc1
17,94 to 95,Cn1cc(C(=O)Nc2ccccc2OC(F)(F)C(F)Cl)c(C(F)(F)F)n1 (stereo not drawn)
18,158 to 159,COCCOc1cc2ncc(C#N)c(Nc3cc(OC)c(Cl)cc3Cl)c2cc1OCCN1CCOCC1
19,188 to 190,CNc1cc(OC)c(C(=O)NCC23CCCN(CCC2)C3)cc1Cl
20,173 to 174,CCOC(=O)N1C=CC(c2c(-c3ccccc3)nn3ccccc23)C=N1 (stereo not drawn)

row,melting point [°C],SMILES
1,193 to 195,COc1cc(OC)c2c(=O)[nH]c(-c3cc(C)c(OCCO)c(C)c3)cc2c1
2,169 to 170,COC(=O)c1ccc(Cn2c3c(c4cc(F)cc(F)c42)CCCC3CC(=O)O)cc1 (stereo not drawn)
3,148 to 149,Cc1nsc(OCC(F)(F)F)c1S(N)(=O)=O
4,84 to 85,CC(CC(=O)O)CC(=O)CCCCCCCCCCC(=O)O (stereo not drawn)
5,105 to 107,Cc1ccnc2c1C(=O)CC(c1cccs1)C2 (stereo not drawn)
6,270 to 275,COc1cccc(-c2ccc3ccc(N)nc3n2)c1
7,141,COc1cc2c(cc1OC)CN(CCCCOc1ccc(NC(=O)c3cnc4ccccc4n3)cc1)CC2
8,115 to 116,CCCNc1nc(C#N)c(C#N)nc1-c1ccc(C)cc1
9,203 to 205,Cc1c(NC(=O)N2CCC(c3ccc(Cl)cc3)CC2)ccc2cc(CN3CCCC3)cnc12
10,170,CC(C)c1ccc(S(=O)(=O)n2c(Cc3cccc(C(=O)O)c3)cc3cc(Cl)ccc32)cc1
11,124 to 125,COc1ccc(-c2c(Cl)c(CNC(=O)c3cccnc3)nc3sc4c(c23)CCN(Cc2ccccc2)C4)cc1OC
12,161,Cc1c(N2CCC(N(C)Cc3ccccc3)C2)c(F)cc2c(=O)c(C(=O)O)cn(C3CC3)c12 (stereo not drawn)
13,124 to 128,O=C(O)c1ccccc1C(=O)c1ccc(O)cc1
14,120,Cc1ccc2c(c1)[nH]c(=O)n2CCCl
15,189 to 190,O=c1ccc2cn(C3OC(CO)C(O)C3O)c(=O)[nH]c-2n1 (stereo not drawn)
16,100 to 102,O=C1c2cc(OCc3ccccc3)ccc2OCC1Oc1ccccc1 (stereo not drawn)
17,168 to 170,CC(CS)C(=O)N(CC(=O)O)c1ccccc1 (stereo not drawn)
18,136 to 140,Cc1cc(C)nc(NC(=O)NS(=O)(=O)c2csnc2Cl)n1
19,175 to 177,CCOC(=O)c1cnn(C)c1C(=O)Nc1ccn2nc(C(C)C)nc2c1
20,63 to 64,CCc1noc(-c2ncn(-c3cccc(OCc4ccccc4)c3)c2COC)n1

# Source: a melting point compilation (Tetko et al.; mined from patent text by program, amines drawn as free bases though some values may be those of a salt)
